These results are taken from patent US9890171B2, “Aldosterone synthase inhibitors” (Boehringer Ingelheim International GmbH, priority 2014, dated 2018).

Chain of aldosterone synthase (CYP11B2) (A0A2K5UPL9 1-503): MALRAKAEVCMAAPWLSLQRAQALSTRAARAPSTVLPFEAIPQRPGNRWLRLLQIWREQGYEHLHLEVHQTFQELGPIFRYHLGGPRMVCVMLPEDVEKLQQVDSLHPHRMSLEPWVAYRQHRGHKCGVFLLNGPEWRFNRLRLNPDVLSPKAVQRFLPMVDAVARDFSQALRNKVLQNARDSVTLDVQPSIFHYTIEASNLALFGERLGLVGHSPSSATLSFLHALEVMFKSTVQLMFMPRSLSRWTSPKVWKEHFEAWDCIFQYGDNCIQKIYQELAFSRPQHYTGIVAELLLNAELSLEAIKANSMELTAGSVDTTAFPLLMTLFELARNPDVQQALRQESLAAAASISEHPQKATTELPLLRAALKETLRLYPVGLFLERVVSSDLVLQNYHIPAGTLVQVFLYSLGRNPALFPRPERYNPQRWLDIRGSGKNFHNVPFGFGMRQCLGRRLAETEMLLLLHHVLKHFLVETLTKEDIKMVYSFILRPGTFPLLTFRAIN

This assay addresses aldosterone synthase (CYP11B2) (Macaca fascicularis, UniProt A0A2K5UPL9). In words: aldosterone synthase inhibition assay. The class given is biochemical, cynomolgus monkey. The note with it: cynomolgus adrenal gland mitochondria, 2 μM corticosterone, aldosterone quantified by mass spectrometry. How it is done: The aldosterone synthase inhibition assay employs cynomolgus adrenal gland mitochondria as the source of aldosterone synthase (CYP11B2). Mitochondria are prepared from frozen cynomolgus monkey adrenal glands according to Method A described in by J. D. McGarry et al. (Biochem. J., 1983, 214, 21-28), with a final resuspension in the AT buffer described in R. Yamaguchi et al. (Cell Death and Differentiation, 2007, 14, 616-624), frozen as aliquots in liquid nitrogen and stored at −80° C. until use.
Assays are performed in 96-well format in a final volume of 60 μL/well, containing 100 mM potassium phosphate, pH 7.4, 1% (v/v) DMSO, and additionally, 2 μM of corticosterone and […] of mitochondrial protein. Reactions are started by the addition of NADPH to 1 mM and allowed to proceed for 60-90 minutes at 37° C. Reactions are terminated by the addition of […]. One hundred microliters are then transferred to a glass filter plate and centrifuged at 570×g for 5 minutes and the filtrate is collected. Reaction product aldosterone is quantified by mass spectrometry. To determine the assay blank value (0% activity), NADPH is omitted from some reactions.
Dose dependent inhibition is quantified by the inclusion of compound at various concentrations. Maximum activity (100%) is defined by reactions containing NADPH, but without compound. Activities at each concentration are expressed as a percentage of the maximum activity (y-axis) and plotted against concentration of compound (x-axis) and the concentration corresponding to 50% activity (IC50) determined using the XLFit curve-fitting program using a 4-parameter logistic model.
`CCC(=O)NC1COCc2c(-c3ccc4onc(C)c4c3)cncc21` (single isomer, unassigned) [Compound 156, N-[8-(3-Methyl-benzo[d]isoxazol-5-yl)-3,4-dihydro-1H-pyrano[4,3-c]pyridin-4-yl]-propionamide] came in with an IC50 of 312 nM.
With `CCC(=O)NC1COCc2c(-c3ccc4c(cnn4C)c3)cncc21` (single isomer, unassigned) [Compound 72, N-[8-(1-Methyl-1H-indazol-5-yl)-3,4-dihydro-1H-pyrano[4,3-c]pyridin-4-yl]-propionamide] the figure was 2300 nM; with `Cn1ncc2ccc(-c3cncc4c3COCC4NS(C)(=O)=O)cc21` (single isomer, unassigned) [Compound 80, N-[8-(1-Methyl-1H-indazol-6-yl)-3,4-dihydro-1H-pyrano[4,3-c]pyridin-4-yl]-methanesulfonamide], 2100 nM; with `OC1COCc2c(-c3cc(Cl)c4cn[nH]c4c3)cncc21` (single isomer, unassigned) [Compound 130, 8-(4-Chloro-1H-indazol-6-yl)-3,4-dihydro-1H-pyrano[4,3-c]pyridin-4-ol], 238 nM.
With `CCC(=O)NC1COCc2c(-c3ccc4c(C)n[nH]c4c3)cncc21` (single isomer, unassigned) [Compound 62, N-[8-(3-Methyl-1H-indazol-6-yl)-3,4-dihydro-1H-pyrano[4,3-c]pyridin-4-yl]-propionamide] the figure was 139 nM; with `CCC(=O)NC1COCc2c(-c3ccc4[nH]nc(C)c4c3)cncc21` (single isomer, unassigned) [Compound 61, N-[8-(3-Methyl-1H-indazol-5-yl)-3,4-dihydro-1H-pyrano[4,3-c]pyridin-4-yl]-propionamide], 36.2 nM; with `NC(=O)N1CCCc2cc(-c3cncc4c3C(O)COC4)cnc21` (centres unmarked) [Compound 160, 6-(4-Hydroxy-3,4-dihydro-1H-pyrano[3,4-c]pyridin-5-yl)-3,4-dihydro-2H-[1,8]naphthyridine-1-carboxylic acid amide], 51.1 nM.
In the case of `CCC(=O)NC1COCc2c(-c3ccc4nnn(C)c4c3)cncc21` (single isomer, unassigned) [Compound 60, N-[8-(3-Methyl-3H-benzotriazol-5-yl)-3,4-dihydro-1H-pyrano[4,3-c]pyridin-4-yl]-propionamide] it was 75.5 nM; in that of `OC1COCc2c(-c3ccc4c(c3)OCCCO4)cncc21` (single isomer, unassigned) [Compound 43, 8-(3,4-Dihydro-2H-benzo[b][1,4]dioxepin-7-yl)-3,4-dihydro-1H-pyrano[4,3-c]pyridin-4-ol], 22 nM.
For `N#Cc1ccc(-c2cncc3c2COCC3O)cc1` (single isomer, unassigned) [Compound 4, 4-(4-Hydroxy-3,4-dihydro-1H-pyrano[4,3-c]pyridin-8-yl)-benzonitrile], the IC50 amounted to 42 nM.
For the compound `N#Cc1ccc(-c2cncc3c2COCC3O)cc1Cl` (single isomer, unassigned) [Compound 7, 2-Chloro-4-(4-hydroxy-3,4-dihydro-1H-pyrano[4,3-c]pyridin-8-yl)-benzonitrile], the IC50 amounted to 6.1 nM.
In turn, `CCC(=O)NC1COCc2c(-c3ccc4c(c3)C(O)CCO4)cncc21` (single isomer, unassigned) [Compound 132, N-[8-(4-Hydroxy-chroman-6-yl)-3,4-dihydro-1H-pyrano[4,3-c]pyridin-4-yl]-propionamide] yielded an IC50 of 518 nM.
With `OC1COCc2c(-c3ccc4[nH]ccc4c3)cncc21` (single isomer, unassigned) [Compound 31, 8-(1H-Indol-5-yl)-3,4-dihydro-1H-pyrano[4,3-c]pyridin-4-ol] the figure was 160 nM; with `OC1c2cncc(-c3ccc4c(c3)COCCO4)c2COC12CC2` (single isomer, unassigned) [Compound 111, 8-(3,5-dihydro-2H-1,4-benzo[e][1,4]dioxepin-7-yl)spiro[1,4-dihydropyrano[4,3-c]pyridine-3,1′-cyclopropane]-4-ol], 114 nM.
